13 compounds from patent publication US20100113437A1, “Active Compound Combinations Having Insecticidal and regular, utility” (BAYER CROPSCIENCE AG, priority 2006, published 2010) can be followed below.

For assay [1], the system named is Spodoptera frugiperda larvae. As to the kind of experiment: Spodoptera frugiperda larvae test (Example F, spray). Type of assay: in vivo. Particulars: single active compound.
Assay [2] has as its system Phaedon cochleariae larvae. Kind of assay: Phaedon cochleariae larvae test (Example D, spray). As to conditions: single active compound.
The test system of the next assay is Aphis gossypii. Kind of assay: Aphis gossypii test (Example A, cotton leaves dipped). The format is in vivo. Particulars: single active compound; for Kill in % after 1d: 100 ppm; for Kill in % after 6d: 0.8 ppm.
Assay [3] relates to Myzus persicae. As to the kind of experiment: Myzus persicae test (Example C, cabbage leaves sprayed, DMF). Type of assay: in vivo. Particulars: single active compound.
The test system of assay [4] is Spodoptera frugiperda larvae. Kind of assay: Spodoptera frugiperda larvae test (Example G, leaf dip). Type of assay: in vivo. As to conditions: single active compound; for Kill in % after 2d: 100 ppm; for Kill in % after 3d: 4 ppm.
A further assay concerns Tetranychus urticae. As to the kind of experiment: Tetranychus test, OP-resistant/spray treatment (Example H). Type of assay: in vivo. Particulars: single active compound; for Kill in % after 6d: 0.8 g/ha. How it is done: Disks of bean leaves (Phaseolus vulgaris) which are infested by all stages of the greenhouse red spider mite (Tetranychus urticae) are sprayed with an active compound preparation of the desired concentration.
After the desired period of time, the activity in % is determined.

Assay [5] concerns Myzus persicae. As to the kind of experiment: Myzus persicae test (Example B, cabbage leaves sprayed, acetone/DMF). Type of assay: in vivo. As to conditions: single active compound.
Another assay concerns Plutella xylostella. As to the kind of experiment: Plutella xylostella test (Example E, leaf dip). The format is in vivo. As to conditions: 0.8 ppm, single active compound.

`N#Cc1ccc(CC(=NNC(=O)Nc2ccc(OC(F)(F)F)cc2)c2cccc(C(F)(F)F)c2)cc1` (mixture of isomers) [metaflumizone]: the results for the “Kill in % after 6d” value in assay [1] (20 g/ha) and in assay [2] (100 g/ha) were 83% and 0%, respectively.
Turning to `CNC(=O)c1cc(Cl)cc(C)c1NC(=O)c1cc(Br)nn1-c1ncccc1Cl` [Rynaxapyr], the “Kill in % after 2d” value in assay [1] (0.8 g/ha) is reported as 67%. Besides, the figures for the “Kill in % after 1d” value in the assay with Aphis gossypii and in the assay with Myzus persicae [3] (4 ppm) were 75% and 35%, respectively.
In the case of `CO[C@H]1CC[C@]2(CC1)NC(=O)C(c1cc(C)ccc1C)=C2O` [compound (I)], the “Kill in % after 2d” value in assay [4] is given as 0%. In addition, the results for the “Kill in % after 1d” value with Aphis gossypii, with Myzus persicae [3] (4 ppm) and in the assay on Myzus persicae [3] (20 ppm) were 0%, 0% and 15%, respectively.
As for `CCOC(=O)OC1=C(c2cc(C)ccc2C)C(=O)N[C@]12CC[C@@H](OC)CC2` [compound (II)], the “Kill in % after 6d” value in assay [1] (0.16 g/ha) is 0%; in assay [1] (0.8 g/ha) it was 0%; in assay [1] (20 g/ha) it was 0%; with Tetranychus urticae it was 50%; in assay [2] (20 g/ha) it was 17%; in assay [2] (100 g/ha), 50%. Also, the “Kill in % after 6d” value in the assay on Plutella xylostella is 10%; in the assay on Aphis gossypii, 0%. The “Kill in % after 2d” value in assay [1] (4 g/ha) amounted to 0%; in assay [1] (20 g/ha), 0%; in the assay with Tetranychus urticae (20 g/ha) it was 10%; with Tetranychus urticae (100 g/ha) it was 20%. For the same compound, the “Kill in % after 1d” value with Myzus persicae [5] (20 g/ha) and with Myzus persicae [5] (100 g/ha) was 10% each time. Besides, the “Kill in % after 3d” value in assay [4] is given as 0%.
Turning to `CCOC(=O)OC1=C(c2cc(C)ccc2C)C(=O)NC12CCC(OC)CC2` (centres unmarked) [compound (IIa)], the “Kill in % after 6d” value in assay [1] (0.16 g/ha) is reported as 0%; in assay [1] (0.8 g/ha) it was 0%; in assay [1] (20 g/ha), 0%; in the assay with Tetranychus urticae, 60%; in assay [2] (20 g/ha), 0%; in assay [2] (100 g/ha), 67%. The “Kill in % after 6d” value with Plutella xylostella is 80%; with Aphis gossypii it was 0%. Besides, the “Kill in % after 2d” value worked out at 0% in assay [1] (4 g/ha), 0% in assay [1] (20 g/ha), 0% in the assay on Tetranychus urticae (20 g/ha) and 10% in the assay with Tetranychus urticae (100 g/ha). Also, the “Kill in % after 1d” value with Myzus persicae [5] (20 g/ha) and in the assay on Myzus persicae [5] (100 g/ha) was 0% each time. Moreover, the “Kill in % after 3d” value in assay [4] was found to be 0%.
Consider `COC1CCC2(CC1)NC(=O)C(c1cc(C)ccc1C)=C2O` (centres unmarked) [compound (Ia)], for which the “Kill in % after 2d” value in assay [4] stood at 0%. For the same compound, the “Kill in % after 1d” value is 0% with Aphis gossypii, 0% with Myzus persicae [3] (4 ppm) and 10% in the assay with Myzus persicae [3] (20 ppm).
On to `CC[S+]([O-])c1c(C#N)nn(-c2c(Cl)cc(C(F)(F)F)cc2Cl)c1N` (centres unmarked) [ethiprole], for which the “Kill in % after 2d” value in the assay on Tetranychus urticae (20 g/ha) is given as 20%.
Regarding `N#Cc1nn(-c2c(Cl)cc(C(F)(F)F)cc2Cl)c(N)c1[S+]([O-])C(F)(F)F` (centres unmarked) [fipronil], the “Kill in % after 6d” value in the assay on Tetranychus urticae was determined as 0%. Also, the “Kill in % after 1d” value stood at 20% with Myzus persicae [5] (20 g/ha) and 10% in the assay on Myzus persicae [3] (20 ppm).
As for `Cc1cc(C(F)(C(F)(F)F)C(F)(F)F)ccc1NC(=O)c1cccc(I)c1C(=O)NC(C)(C)CS(C)(=O)=O` [flubendiamide], in assay [1] (0.8 g/ha), the “Kill in % after 6d” value amounted to 50%.
For the compound `O=C(NC(=O)c1c(F)cccc1F)Nc1ccc(Oc2ccc(C(F)(F)F)cc2Cl)cc1F` [flufenoxuron], the entries for the “Kill in % after 6d” value in assay [1] (0.16 g/ha) and in assay [2] (20 g/ha) were 83% and 50%, respectively.
Take `O=C(NC(=O)c1c(F)cccc1F)Nc1cc(Cl)c(OC(F)(F)C(F)C(F)(F)F)cc1Cl` (centres unmarked) [lufenuron]: the entries for the “Kill in % after 2d” value in assay [1] (20 g/ha) and in assay [4] were 50% and 40%, respectively. In assay [2] (20 g/ha), the “Kill in % after 6d” value was found to be 83%.
Take `O=C(NC(=O)c1ccccc1Cl)Nc1ccc(OC(F)(F)F)cc1` [triflumuron]: in the assay with Tetranychus urticae (100 g/ha), the “Kill in % after 2d” value came out at 0%. The “Kill in % after 1d” value in the assay with Myzus persicae [5] (100 g/ha) came out at 0%.
For the compound emamectin benzoate, the “Kill in % after 6d” value with Aphis gossypii came out at 15%.
